The results in this text go back to patent US20050020576A1, “Kappa agonist compounds and pharmaceutical formulations thereof” (priority 1996, published 2005).

Where a name gives a salt, the structure may show the parent alone. Read-outs that look alike come from different tables or passages of the source.

Assay [1] deals with cloned human kappa receptor (Homo sapiens, UniProt P41145). The assay is described as follows: biochemical. It is filed as binding.
Assay [2] deals with formalin-induced flinching. As to the kind of experiment: animal or person. The settings on record: for Late Phase Formalin, % @ 300 / Late Phase Formalin (i. paw), % @ 300: rat, in vivo; for inhibition in vivo at 0.3 µM: Rattus norvegicus, read-out: Formalin (% A @ 300 nM) i. paw. It is filed as in vivo, male Sprague-Dawley rats.

Chain of cloned human kappa receptor (P41145 whole entry): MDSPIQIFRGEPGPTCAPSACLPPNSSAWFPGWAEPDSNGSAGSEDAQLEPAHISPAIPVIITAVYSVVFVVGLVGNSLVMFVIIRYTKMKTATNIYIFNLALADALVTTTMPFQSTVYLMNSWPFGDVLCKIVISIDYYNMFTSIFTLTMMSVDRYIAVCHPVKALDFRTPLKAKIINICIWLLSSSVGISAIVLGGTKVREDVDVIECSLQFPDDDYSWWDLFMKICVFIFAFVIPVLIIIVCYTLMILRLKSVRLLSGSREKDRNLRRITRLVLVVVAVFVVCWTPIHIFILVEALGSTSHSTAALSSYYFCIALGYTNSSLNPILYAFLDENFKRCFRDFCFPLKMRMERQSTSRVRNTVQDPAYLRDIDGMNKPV

On to `CC(C)COC(=O)CNC(=O)CCC(=O)Nc1cccc([C@@H](CN2CCCC2)N(C)C(=O)Cc2ccc(Cl)c(Cl)c2)c1` [Example 3i, 2-(3,4-Dichlorophenyl)-N-methyl-N-{(1S)-1-[3-(3-(((iso-butoxycarbonyl)-methyl)aminocarbonyl)propionamido)phenyl]-2-(1-pyrrolidinyl)ethyl}acetamide hydrochloride], for which the inhibition constant (Ki) – broadly, the equilibrium dissociation constant of an inhibitor or competing ligand from its target – in assay [1] (Ki (nM) [3H]-Diprenorphin κ) was 0.14 nM. The “Late Phase Formalin, % @ 300” value in assay [2] was 23% @ 300.
`CN(C(=O)Cc1ccccc1NS(C)(=O)=O)C(CN1CCCC1)c1ccc(O)cc1` (racemic) [Example 129A, (R,S)-2-(2-N-Methylsulfonamido-2-aminophenyl)-N-methyl-N-1-(4-hydroxyphenyl)-2-(1-pyrrolidinyl)ethyl]acetamide] gave an inhibition constant (Ki) in assay [1] (Ki (nM) [3H]-Diprenorphin κ) of 59 nM. The “Late Phase Formalin (i. paw), % @ 300” value in assay [2] is recorded as 46% @ 300.
In the case of `CN(C(=O)Cc1ccc(Cl)c(Cl)c1)[C@H](CN1CCCC1)c1cccc(NC(=O)CCC(=O)NCC(=O)O)c1` [Example 3j, 2-(3,4-Dichlorophenyl)-N-methyl-N-{(1R,S)-1-[3-(3-(((hydroxycarbonyl)-methyl)aminocarbonyl)propionamido)phenyl]-2-(1-pyrrolidinyl)ethyl}acetamide hydrochloride], the Ki in assay [1] (Ki (nM) [3H]-Diprenorphin κ) was 2.3 nM. In assay [2], the “Late Phase Formalin, % @ 300” value was determined as 38% @ 300.
In assay [1] (Ki (nM) [3H]-Diprenorphin κ), `CNS(=O)(=O)c1cccc(CC(=O)N(C)[C@H](CN2CCCC2)c2ccccc2)c1OC` [Example 3u] yielded a Ki of 1 nM. Also, in assay [2], the “Late Phase Formalin, % @ 300” value was found to be 48% @ 300.
For `CNS(=O)(=O)c1ccccc1CC(=O)N(C)C(CN1CCCC1)c1ccccc1F` (racemic) [Example 147], the affinity in assay [1] (Ki (nM) [3H]-Diprenorphin κ) corresponds to a Ki of 10 nM. The “Late Phase Formalin (i. paw), % @ 300” value in assay [2] is 56% @ 300.
As for `CN(C(=O)Cc1cc2c(cc1S(=O)(=O)N(C)C)OCO2)[C@H](CN1CC[C@H](O)C1)c1ccccc1` [Example 133, 2-[2-(N-Dimethylsulfamoyl)-4,5-methylenedioxyphenyl]-N-methyl-N-[(1S)-1-phenyl-2-[1-(3S)-(3-hydroxypyrrolidinyl)ethyl]]acetamide], the inhibition constant Ki in assay [1] (read-out: Ki(nM) [3H]-Diprenorphin κ) is 0.64 nM. Moreover, the “Late Phase Formalin (i. paw), % @ 300” value in assay [2] stood at 98% @ 300.
The molecule `CS(=O)(=O)N1CCN(C(=O)Cc2ccc(Cl)c(Cl)c2)C(CN2CC[C@H](O)C2)C1` (mixture of isomers) [Example 1ll, 4-Methylsulphonyl-1-[(3,4-dichlorophenyl)acetyl]-2-(R,S)-[(3-(S)-hydroxy-1-pyrrolidinyl)methyl]piperazine hydrochloride] returned an inhibition constant (Ki) in assay [1] (Ki, nM 3H-Diprenorphin) of 2.86 nM. Further, the inhibition in vivo at 0.3 µM in assay [2] is 52%.
The corresponding values for `COC(=O)N1CCN(C(=O)Cc2ccc(Cl)c(Cl)c2)C(CN2CCC[C@H]2COC(=O)Cc2ccc(Cl)c(Cl)c2)C1` (mixture of isomers) [Example 1k, Methyl-4-[(3,4-dichlorophenyl)acetyl]-3-(R,S)-[(2-(S)-pyrrolidinemethyl-3′,4′-dichlorophenyl acetate)methyl]-1-piperazinecarboxylate hydrochloride] are 51.5 nM and 95%.
The molecule `CN(C(=O)Cc1ccccc1NS(C)(=O)=O)[C@H](CN1CC[C@H](O)C1)c1ccccc1` [Example 125, 2-(2-N-Methylsulfonamido-2-aminophenyl)-N-methyl-N-[(1S)-1-phenyl-2-[1-(3S)-(3-hydroxypyrrolidinyl)ethyl]]acetamide] returned an inhibitory constant (Ki) in assay [1] (Ki (nM) [3H]-Diprenorphin κ) of 5.3 nM. Moreover, in assay [2], the “Late Phase Formalin (i. paw), % @ 300” value was found to be 81% @ 300.
In assay [1] (Ki, nM 3H-Diprenorphin), `COC(=O)N1CCN(C(=O)Cc2ccc(Cl)c(Cl)c2)[C@@H](CN2CCC[C@H]2CO)C1` [Example 1ii, Methyl-4-[(3,4-dichlorophenyl)acetyl]-3-(S)-[(2-(S)-pyrrolidinemethanol)methyl]-1-piperazinecarboxlate hydrochloride] registered a Ki of 21.5 nM. Further, the inhibition in vivo at 0.3 µM in assay [2] was found to be 60%.
